Results from PubChem BioAssay AID1259407 (Chemical Carcinogenesis Research Information System (CCRIS), 2018).
Calls of active or inactive are those of the source. No rule for the calls is given here.

System: CCRIS mutagenicity, Ames/micronucleus/aberration tests
Test: CCRIS mutagenicity studies
[1] = Test System: AMES SALMONELLA TYPHIMURIUM, Strain/Indicator: TA98, Metabolic Activation: RAT, LIVER, S-9, AROCLOR 1254, Method: PREINCUBATION
[2] = Test System: AMES SALMONELLA TYPHIMURIUM, Strain/Indicator: TA98, Metabolic Activation: NONE, Method: PREINCUBATION
[3] = Test System: AMES SALMONELLA TYPHIMURIUM, Strain/Indicator: TA100, Metabolic Activation: NONE, Method: PREINCUBATION
[4] = Test System: AMES SALMONELLA TYPHIMURIUM, Strain/Indicator: TA1535, Metabolic Activation: NONE, Method: PREINCUBATION
[5] = Test System: AMES SALMONELLA TYPHIMURIUM, Strain/Indicator: TA1537, Metabolic Activation: NONE, Method: PREINCUBATION

Structure (SMILES): O=C(CCCN1CCN(c2ccccn2)CC1)c1ccc(F)cc1
- mutagenic call (Test System: AMES SALMONELLA TYPHIMURIUM, Strain/Indicator: TA98, Metabolic Activation: MOUSE, LIVER, S-9, PHENOBARBITAL, Method: STANDARD PLATE): inactive; negative
- mutagenic call (Test System: AMES SALMONELLA TYPHIMURIUM, Strain/Indicator: TA98, Metabolic Activation: NONE, Method: STANDARD PLATE): inactive; negative
- mutagenic call [1]: inactive; negative
- mutagenic call (Test System: AMES SALMONELLA TYPHIMURIUM, Strain/Indicator: TA98, Metabolic Activation: RAT, LIVER, S-9, AROCLOR 1254, Method: STANDARD PLATE): inactive; negative
- mutagenic call (Test System: AMES SALMONELLA TYPHIMURIUM, Strain/Indicator: TA100, Metabolic Activation: NONE, Method: STANDARD PLATE): inactive; negative
- mutagenic call (Test System: AMES SALMONELLA TYPHIMURIUM, Strain/Indicator: TA100, Metabolic Activation: RAT, LIVER, S-9, AROCLOR 1254, Method: STANDARD PLATE): inactive; negative
- mutagenic call (Test System: AMES SALMONELLA TYPHIMURIUM, Strain/Indicator: TA1530, Metabolic Activation: NONE, Method: STANDARD PLATE): inactive; negative
- mutagenic call (Test System: AMES SALMONELLA TYPHIMURIUM, Strain/Indicator: TA1530, Metabolic Activation: RAT, LIVER, S-9, AROCLOR 1254, Method: STANDARD PLATE): inactive; negative
- mutagenic call (Test System: AMES SALMONELLA TYPHIMURIUM, Strain/Indicator: TA1535, Metabolic Activation: NONE, Method: STANDARD PLATE): inactive; negative
- mutagenic call (Test System: AMES SALMONELLA TYPHIMURIUM, Strain/Indicator: TA1535, Metabolic Activation: RAT, LIVER, S-9, AROCLOR 1254, Method: STANDARD PLATE): inactive; negative
- mutagenic call (Test System: AMES SALMONELLA TYPHIMURIUM, Strain/Indicator: TA1537, Metabolic Activation: NONE, Method: STANDARD PLATE): inactive; negative
- mutagenic call (Test System: AMES SALMONELLA TYPHIMURIUM, Strain/Indicator: TA1537, Metabolic Activation: RAT, LIVER, S-9, AROCLOR 1254, Method: STANDARD PLATE): inactive; negative
- mutagenic call (Test System: AMES SALMONELLA TYPHIMURIUM, Strain/Indicator: TA1538, Metabolic Activation: NONE, Method: STANDARD PLATE): inactive; negative
- mutagenic call (Test System: AMES SALMONELLA TYPHIMURIUM, Strain/Indicator: TA1538, Metabolic Activation: RAT, LIVER, S-9, AROCLOR 1254, Method: STANDARD PLATE): inactive; negative

Structure (SMILES): CC1(C)S[C@@H]2[C@H](NC(=O)COc3ccccc3)C(=O)N2[C@H]1C(=O)O
- mutagenic call (Test System: AMES SALMONELLA TYPHIMURIUM, Strain/Indicator: TA98, Metabolic Activation: HAMSTER, LIVER, S-9, AROCLOR 1254, Method: PREINCUBATION): inactive; negative
- mutagenic call [2]: inactive; negative
- mutagenic call [1]: inactive; negative
- mutagenic call (Test System: AMES SALMONELLA TYPHIMURIUM, Strain/Indicator: TA100, Metabolic Activation: HAMSTER, LIVER, S-9, AROCLOR 1254, Method: PREINCUBATION): inactive; negative
- mutagenic call [3]: inactive; negative
- mutagenic call (Test System: AMES SALMONELLA TYPHIMURIUM, Strain/Indicator: TA100, Metabolic Activation: RAT, LIVER, S-9, AROCLOR 1254, Method: PREINCUBATION): inactive; negative
- mutagenic call (Test System: AMES SALMONELLA TYPHIMURIUM, Strain/Indicator: TA1535, Metabolic Activation: HAMSTER, LIVER, S-9, AROCLOR 1254, Method: PREINCUBATION): inactive; negative
- mutagenic call [4]: inactive; negative
- mutagenic call (Test System: AMES SALMONELLA TYPHIMURIUM, Strain/Indicator: TA1535, Metabolic Activation: RAT, LIVER, S-9, AROCLOR 1254, Method: PREINCUBATION): inactive; negative
- mutagenic call (Test System: AMES SALMONELLA TYPHIMURIUM, Strain/Indicator: TA1537, Metabolic Activation: HAMSTER, LIVER, S-9, AROCLOR 1254, Method: PREINCUBATION): inactive; negative
- mutagenic call [5]: inactive; negative
- mutagenic call (Test System: AMES SALMONELLA TYPHIMURIUM, Strain/Indicator: TA1537, Metabolic Activation: RAT, LIVER, S-9, AROCLOR 1254, Method: PREINCUBATION): inactive; negative
- mutagenic call (Test System: MOUSE LYMPHOMA, Strain/Indicator: L5178Y (TK+/TK-), Metabolic Activation: NONE, Method: SUSPENSION/PLATE): inactive; negative
- mutagenic call (Test System: MOUSE LYMPHOMA, Strain/Indicator: L5178Y (TK+/TK-), Metabolic Activation: RAT, LIVER, S-9, Method: SUSPENSION/PLATE): active; positive

Structure (SMILES): C/C(C=O)=C\c1ccccc1
- mutagenic call (Test System: AMES SALMONELLA TYPHIMURIUM, Strain/Indicator: TA98, Metabolic Activation: HAMSTER, LIVER, S-9, AROCLOR 1254 (10%), Method: PREINCUBATION): inactive; negative
- mutagenic call [2]: inactive; negative
- mutagenic call (Test System: AMES SALMONELLA TYPHIMURIUM, Strain/Indicator: TA98, Metabolic Activation: RAT, LIVER, S-9, AROCLOR 1254 (10%), Method: PREINCUBATION): inactive; negative
- mutagenic call (Test System: AMES SALMONELLA TYPHIMURIUM, Strain/Indicator: TA100, Metabolic Activation: HAMSTER, LIVER, S-9, AROCLOR 1254 (10%), Method: PREINCUBATION): inactive; negative
- mutagenic call [3]: inactive; negative
- mutagenic call (Test System: AMES SALMONELLA TYPHIMURIUM, Strain/Indicator: TA100, Metabolic Activation: RAT LIVER S-9, AROCLOR 1254, Method: PREINCUBATION): inactive; negative
- mutagenic call (Test System: AMES SALMONELLA TYPHIMURIUM, Strain/Indicator: TA100, Metabolic Activation: RAT, LIVER, S-9, AROCLOR 1254 (10%), Method: PREINCUBATION): inactive; negative
- mutagenic call (Test System: AMES SALMONELLA TYPHIMURIUM, Strain/Indicator: TA102, Metabolic Activation: MOUSE LIVER S-9, AROCLOR 1254, Method: PREINCUBATION): inactive; negative
- mutagenic call (Test System: AMES SALMONELLA TYPHIMURIUM, Strain/Indicator: TA102, Metabolic Activation: NONE, Method: PREINCUBATION): inactive; negative
- mutagenic call (Test System: AMES SALMONELLA TYPHIMURIUM, Strain/Indicator: TA102, Metabolic Activation: RAT LIVER S-9, AROCLOR 1254, Method: PREINCUBATION): inactive; negative
- mutagenic call (Test System: AMES SALMONELLA TYPHIMURIUM, Strain/Indicator: TA104, Metabolic Activation: MOUSE LIVER S-9, AROCLOR 1254, Method: PREINCUBATION): inactive; negative
- mutagenic call (Test System: AMES SALMONELLA TYPHIMURIUM, Strain/Indicator: TA104, Metabolic Activation: NONE, Method: PREINCUBATION): inactive; negative
- mutagenic call (Test System: AMES SALMONELLA TYPHIMURIUM, Strain/Indicator: TA104, Metabolic Activation: RAT LIVER S-9, AROCLOR 1254, Method: PREINCUBATION): inactive; negative
- mutagenic call (Test System: AMES SALMONELLA TYPHIMURIUM, Strain/Indicator: TA1535, Metabolic Activation: HAMSTER, LIVER, S-9, AROCLOR 1254 (10%), Method: PREINCUBATION): inactive; negative
- mutagenic call [4]: inactive; negative
- mutagenic call (Test System: AMES SALMONELLA TYPHIMURIUM, Strain/Indicator: TA1535, Metabolic Activation: RAT, LIVER, S-9, AROCLOR 1254 (10%), Method: PREINCUBATION): inactive; negative
- mutagenic call (Test System: AMES SALMONELLA TYPHIMURIUM, Strain/Indicator: TA1537, Metabolic Activation: HAMSTER, LIVER, S-9, AROCLOR 1254 (10%), Method: PREINCUBATION): inactive; negative
- mutagenic call [5]: inactive; negative
- mutagenic call (Test System: AMES SALMONELLA TYPHIMURIUM, Strain/Indicator: TA1537, Metabolic Activation: RAT, LIVER, S-9, AROCLOR 1254 (10%), Method: PREINCUBATION): inactive; negative
